Columns and labels:
[1] = test system: Cabbage Looper (Trichoplusia ni); assay: Bioassay on Cabbage Looper (CL), 128-well diet tray assay; format: in vivo; details: 168 h, percent mortality of second instar larvae, 50 μg/cm^2 on artificial diet, five to seven days, 25° C., read-out: CL Rating
Method: Certain molecules disclosed in this document were tested against BAW, CEW and CL using procedures described in the following examples. In the reporting of the results, the “BAW & CEW & CL Rating Table” was used (See Table Section).
Bioassays on CL (Trichoplusia ni)
Bioassays on CL were conducted using a 128-well diet tray assay. One to five second instar CL larvae were placed in each well (3 mL) of the diet tray that had been previously filled with 1 mL of artificial diet to which 50 μg/cm^2 of the test compound (dissolved in 50 μL of 90:10 acetone-water mixture) had been applied (to each of eight wells) and then allowed to dry. Trays were covered with a clear self-adhesive cover, and held at 25° C., 14:10 light-dark for five to seven days. Percent mortality was recorded for the larvae in each well; activity in the eight wells was then averaged.
“Table 4: Assay Results Part 2” (See Table Section).

[2] = test system: Beet Armyworm (Spodoptera exigua); assay: Bioassay on Beet Armyworm (BAW), 128-well diet tray assay; format: in vivo; details: for pest or weed control at 50 µg/cm2, 50 µg/cm2: Spodoptera exigua, 168 h, percent mortality of second instar larvae, 50 μg/cm^2 on artificial diet, five to seven days, 25° C., read-out: BAW Rating; for BAW Rating: Table 3, Assays Results Part 1

Structure (SMILES)	pest or weed control at 50 µg/cm2, 50 µg/cm2 [1] [%]	pest or weed control at 50 µg/cm2, 50 µg/cm2 [2] [%]	BAW Rating [2]
CCC(NC(=O)c1ccc(/C=C/C(c2cc(Cl)c(Cl)c(Cl)c2)C(F)(F)F)cc1Cl)C(=O)NCC(F)(F)F (stereo not drawn) [Compound F23A]	50 to 100	50 to 100	–
CC[C@H](NC(=O)c1ccc(/C=C/C(c2cc(Cl)c(Cl)c(Cl)c2)C(F)(F)F)cc1Cl)C(=O)NCC(F)(F)F (stereo partly drawn) [Compound F23]	50 to 100	–	–
C[C@@H](NC(=O)c1ccc(/C=C/C(c2cc(F)cc(C(F)(F)F)c2)C(F)(F)F)cc1Br)C(=O)NCC(F)(F)F (stereo partly drawn) [Compound F24]	50 to 100	50 to 100	–
C[C@@H](NC(=O)c1ccc(/C=C/C(c2cc(Cl)c(Cl)c(Cl)c2)C(F)(F)F)cc1Cl)C(=O)NCC(F)(F)F (stereo partly drawn) [Compound F25]	50 to 100	50 to 100	–
Cc1cc(/C=C/C(c2cc(Cl)c(Cl)c(Cl)c2)C(F)(F)F)ccc1C(=O)N[C@H](C)C(=S)NCC(F)(F)F (stereo partly drawn) [Compound F26]	50 to 100	50 to 100	–
C[C@@H](NC(=O)c1ccc(/C=C/C(c2cc(Cl)c(Cl)c(Cl)c2)C(F)(F)F)cc1Br)C(=S)NCC(F)(F)F (stereo partly drawn) [Compound F27]	50 to 100	50 to 100	–
C[C@@H](NC(=O)c1ccc(/C=C/C(c2cc(Cl)c(Cl)c(Cl)c2)C(F)(F)F)cc1C(F)(F)F)C(=S)NCC(F)(F)F (stereo partly drawn) [Compound F28]	50 to 100	50 to 100	–
Cc1cc(/C=C/C(c2cc(Cl)c(Cl)c(Cl)c2)C(F)(F)F)ccc1C(=O)NC(C)(C)C(=S)NCC(F)(F)F (stereo not drawn) [Compound F29]	50 to 100	50 to 100	–
Cc1cc(/C=C/C(c2cc(Cl)c(Cl)c(Cl)c2)C(F)(F)F)cc(C#N)c1-n1cncn1 (stereo not drawn) [DC45]	–	–	A (50-100)
N#Cc1cc(/C=C\C(c2cc(Cl)c(F)c(Cl)c2)C(F)(F)F)ccc1-n1cncn1 (stereo not drawn) [DC46]	–	–	A (50-100)
FC(F)(F)C(/C=C/c1ccc(-n2cncn2)c(Br)c1)c1cc(Cl)cc(Cl)c1 (stereo not drawn) [DC47]	–	–	A (50-100)
Fc1cc(/C=C/C(c2cc(Cl)cc(Cl)c2)C(F)(F)F)ccc1-n1cncn1 (stereo not drawn) [DC48]	–	–	A (50-100)
FC(F)(F)C(/C=C/c1ccc(-n2cncn2)c(Cl)c1)c1cc(Cl)c(Cl)c(Cl)c1 (stereo not drawn) [DC49]	–	–	A (50-100)
FC(F)(F)C(/C=C/c1ccc(-n2cncn2)c(Cl)c1)c1cc(Cl)cc(Cl)c1 (stereo not drawn) [DC50]	–	–	A (50-100)
FC(F)(F)c1cc(/C=C/C(c2cc(Cl)cc(Cl)c2)C(F)(F)F)ccc1-n1cncn1 (stereo not drawn) [DC51]	–	–	A (50-100)
CNc1cc(/C=C/C(c2cc(Cl)cc(Cl)c2)C(F)(F)F)ccc1-n1cncn1 (stereo not drawn) [DC57, (E)-5-(3-(3,5-Dichlorophenyl)-4,4,4-trifluorobut-1-en-1-yl)-N-methyl-2-(1H-1,2,4-triazol-1-yl)aniline]	–	–	A (50-100)
CCOC(=O)c1cc(/C=C/C(c2cc(Cl)cc(Cl)c2)C(F)(F)F)ccc1-n1cncn1 (stereo not drawn) [DC60]	–	–	A (50-100)
Cc1cc(/C=C/C(c2cc(Cl)cc(Cl)c2)C(F)(F)F)ccc1-n1cncn1 (stereo not drawn) [DC62]	–	–	A (50-100)
Cc1cc(/C=C/C(c2cc(Cl)c(Cl)c(Cl)c2)C(F)(F)F)ccc1-n1cncn1 (stereo not drawn) [DC63]	–	–	A (50-100)
FC(F)(F)C(/C=C/c1ccc(-n2cncn2)cc1Cl)c1cc(Cl)c(Cl)c(Cl)c1 (stereo not drawn) [DC66]	–	–	A (50-100)
FC(F)(F)C(/C=C/c1ccc(-n2cncn2)cc1Cl)c1cc(Cl)cc(Cl)c1 (stereo not drawn) [DC67]	–	–	A (50-100)
C/C(=C\C(c1cc(Cl)cc(Cl)c1)C(F)(F)F)c1ccc(-n2cncn2)cc1 (stereo not drawn) [DC68, (E)-1-(4-(4-(3,5-Dichlorophenyl)-5,5,5-trifluoropent-2-en-2-yl)phenyl)-1H-1,2,4-triazole]	–	–	A (50-100)
COC(/C=C/c1ccc(-n2cncn2)cc1)(c1cc(Cl)cc(Cl)c1)C(F)(F)F (stereo not drawn) [DC70, (E)-1-(4-(3-(3,5-Dichlorophenyl)-4,4,4-trifluoro-3-methoxybut-1-en-1-yl)phenyl)-1H-1,2,4-triazole]	–	–	A (50-100)

— US9226500B2, “Pesticidal compositions and processes related thereto” (Dow AgroSciences LLC, priority 2012, dated 2016)
